In US20090214607A1, “Topical use of teprenone” (SEDERMA, priority 2005, published 2009):

Legend:
Hsp27 = Hsp27 immunolabeling in UVB-irradiated human skin explants; assay type: cell-based; settings: for Number of Hsp27 positive cells/cm: UVB 2 J/cm2, n = 3
Source text: (§1) Heat Schock proteins (Hsp) are cellular protective molecules which contribute to the correct proteinic folding, thus preserving the protein activity. Hsp 27 is a protective chaperone protein very present in the keratinocytes at the basal state. In situation of UV stress, cell increases its rate of protection and Hsp 27 is strongly overexpressed. Hsp70 is a chaperone protein less expressed in a basal state but induced in response to the UV, thermics, mechanics or infectious stress.
(§2) Human skin explants are treated in a similar way to the previous experiment (protection on the catalase activity): taken from a plastic surgery, they are cultivated for 48 h in the presence or not, for control, of teprenone (or trolox) at various concentrations, then irradiated or not using a source UVB (2 J/cm2). After irradiation skin explants were post-treated (24 h) or not with teprenone (or trolox) at the same concentrations.
(§3) Explants were embedded in OCT, sectioned using a freezing microtome, and slide mounted. The mounted specimens were immunolabeled with anti-human Hsp antibody.

VEGF = VEGF in supernatant of γ-irradiated NHEK cells (ELISA); assay type: cell-based, human; settings: for decrease of VEGF: vs irradiated control; for expression VEGF: γ-irradiation 5 Gγ, 4 days
Method: (§4) In order to determine the action of teprenone as per the invention, the effect of GGA on the IL8 and VEGF expression was investigated in the supernatants of irradiated (with 5 Gy) NHEK cells. After γ-irradiation, NHEK cells are treated during 4 days with or without GGA at differents concentrations. The amount of IL8 and VEGF present in the cells supernatant is determined with ELISA method.

catalase = assay: Catalase activity in human skin explants after UVB (Clairborne-Aebi method); assay type: cell-based; settings: for protective effect on enzymatic activity of catalase: vs UVB; for catalase activity: after UVB 2 J/cm2
Method: Human skin explants obtained from a patient having undergone plastic surgery were cultured with or without teprenone or Trolox (positive control) for 48 hours then exposed to UV B radiation (2 J/cm^2). After irradiation, the explants were again cultured in fresh medium with or without teprenone or Trolox for 24 hours. Similars explants were also used in immunolabeling tests on heat shock proteins (HSP) and in the apoptosis study.
Catalase anti-oxidant activity was determined by the Clairborne-Aebi method. Hydrogen peroxide (H2O2) consumption is directly proportional to catalase activity. The consumption was determined by spectrophotometry at 240 nm

IL8 = IL8 in supernatant of γ-irradiated NHEK cells (ELISA); assay type: cell-based, human; settings: for decrease of IL8: vs irradiated control; for expression of IL8: γ-irradiation 5 Gγ, 4 days
Method: as §4

[1] = Lipid peroxidation of liposomes using H2O2+FeCl2; assay type: biochemical; settings: for Variation of peroxydation: vs negative control
Method: In order to determine the action of teprenone as per the invention, the effect of the active substance on the lipid peroxidation of liposomes was analyzed. The liposomes were used to model cutaneous lipids.
In this method, liposomes are exposed to the test compound and a Fenton oxidative system. The peroxidation is determined by spectrophotometry. Trolox, a known anti-free radical agent, is used as the positive control at the same molar concentration as a teprenone.

NHEK = NHEK cell re-colonization after scraping and irradiation; assay type: cell-based, human; settings: 3 · 10^−5%
Method: NHEK were inoculated into Labtech microplates and cultured to post-confluence with or without teprenone. The cultures were then mechanically scraped and exposed to radiation at a dose level of 0, 5 or 10 Gy. The percentage area re-colonized post-irradiation was determined.

Thioredoxin = Thioredoxin in cellular supernatant of human fibroblasts (ELISA), with or without UVA; assay type: cell-based; settings: for Thioredoxin rate in cellular supernatant: 10^−3%
Method: Normal human fibroblasts were tested to ascertain whether exposure to teprenone would stimulate thioredoxin expression in the cellular supernatants.
Human fibroblasts (FHN) in culture were irradiated with UVA (4 and 6 J/cm^2) or not irradiated (control). 24 h before the irradiation, these cells were grown without or with teprenone (GGA at 10^−3%). After irradiation, each case received the same medium (with or without GGA) as before irradiation. Incubations of 24 or 48 h with these fresh mediums were made. Thioredoxin in the cellular supernants was estimated using ELISA method. The results obtained are recapitulated in Table 3

Hsp70 = Hsp70 immunolabeling in UVB-irradiated human skin explants; assay type: cell-based; settings: for Number of Hsp70 positive cells/cm: UVB 2 J/cm2, n = 3
Source text: as §1, §2, §3

[2] = tested on: human primary keratinocytes; assay: Gene expression profile by DNA array (CodeLink Whole Genome bioarray); assay type: cell-based
Method: Human primary keratinocyte cultures were prepared and incubated in the presence or absence of teprenone. The culture supernatants were withdrawn and the cell monolayers frozen at −80° C. The un-thawed monolayers were exposed to lysis buffer and the cell RNA extracted using a commercially-available kit (Roche kit V6: total RNA extraction). Solvent controls underwent the same extraction process in parallel. The expression profiles of the gene sequences were determined using a CodeLink Whole Genome bioarray for each sample of purified RNA. The values obtained were normalized relative to the controls.

[3] = tested on: Normal human fibroblasts (NHF); assay: Replicative senescence: variation of division number; assay type: cell-based; settings: 1 and 3 μM; long-term contact; 64th day to 95th day
Method: Replicative senescence reflects the aging of cells in cultures as they are serially sub-cultured. Normal human fibroblasts (NHF) were cultured in the absence or presence of 1 and 3 μM teprenone. At regular intervals, without awaiting confluence, the cells were counted, observed and sub-cultured at the same rate.

CC(=O)CCC=C(C)CCC=C(C)CCC=C(C)CCC=C(C)C [Teprenone, 6,10,14,18-tetramethyl-5,9,13-nonadecatetren-2-one]
Hsp27: Protection vs. irradiated (%) (Hsp27; 0.05 mM): 50%
Hsp27: Protection vs. irradiated (%) (Hsp27; 0.1 mM): 75%
Hsp27: Protection vs. irradiated (%) (Hsp27; 0.1 mM, listed as GGA): 75%
Number of Hsp27 positive cells/cm (Hsp27; 0.05 mM): 530 cells/cm
Number of Hsp27 positive cells/cm (Hsp27; 0.1 mM): 400 cells/cm
decrease of VEGF (VEGF; 1 · 10^−4%): −47%
decrease of VEGF (VEGF; 3 · 10^−5%): −30%
expression VEGF (VEGF; 1 · 10^−4%): 3 pg/10⁵ cells
expression VEGF (VEGF; 3 · 10^−5%): 3.5 pg/10⁵ cells
protective effect on enzymatic activity of catalase (catalase; 0.05 mM): +40%
protective effect on enzymatic activity of catalase (catalase; 0.1 mM): +45%
catalase activity (catalase; 0.05 mM): 125 UI/mg of protein
catalase activity (catalase; 0.1 mM): 130 UI/mg of protein
decrease of IL8 (IL8; 1.10^−4%): −67%
decrease of IL8 (IL8; 3.10^−5%): −50%
expression of IL8 (IL8; 1 · 10^−4%): 2.12 pg/10^5 cells
expression of IL8 (IL8; 3 · 10^−5%): 3.25 pg/10^5 cells
Variation of peroxydation ([1]; concentration 3 · 10^−2%): −75%
Variation of peroxydation ([1]; concentration 3 · 10^−3%): −26%
Variation of peroxydation ([1]; concentration 3 · 10^−4%): −16%
decrease in peroxidation ([1]; concentration 3.10^−2%): 75%
Variation of peroxydation ([1]; concentration 10^−2%): −39%
Variation of peroxydation ([1]; concentration 10^−3%): −20%
% on NHEK re-colonization 24 hours after (NHEK; 5 Gγ): faster re-colonization
% on NHEK re-colonization 24 hours after (NHEK; 5 Gγ, listed as GGA): 80%
% on NHEK re-colonization 24 hours after (NHEK; 10 Gγ): 60%
% on NHEK re-colonization 24 hours after (NHEK; not irradiated): 62%
Thioredoxin rate in cellular supernatant (Thioredoxin; UVA 4 J/cm^2, incubation 24 h): 24.3 ng/mg protein
Thioredoxin rate in cellular supernatant (Thioredoxin; UVA 4 J/cm^2, incubation 48 h): 32.4 ng/mg protein
Thioredoxin rate in cellular supernatant (Thioredoxin; UVA 6 J/cm^2, incubation 24 h): 43.7 ng/mg protein
Thioredoxin rate in cellular supernatant (Thioredoxin; UVA 6 J/cm^2, incubation 48 h): 59.2 ng/mg protein
Thioredoxin rate in cellular supernatant (Thioredoxin; not irradiated, incubation 24 h): 11.6 ng/mg protein
Thioredoxin rate in cellular supernatant (Thioredoxin; not irradiated, incubation 48 h): 28.5 ng/mg protein
increase of thioredoxin rate in the cellular supernatant (Thioredoxin; 24 h incubation, 4 J/cm^2): +30%
increase of thioredoxin rate in the cellular supernatant (Thioredoxin; 24 h incubation, 6 J/cm^2): +40%
increase of thioredoxin rate in the cellular supernatant (Thioredoxin; 24 h incubation, without irradiation): +60%
increase of thioredoxin rate in the cellular supernatant (Thioredoxin; 48 h incubation, 4 J/cm^2): +50%
increase of thioredoxin rate in the cellular supernatant (Thioredoxin; 48 h incubation, 6 J/cm^2): 40%
increase of thioredoxin rate in the cellular supernatant (Thioredoxin; 48 h incubation, non irradiated): +150%
Hsp70: Protection vs. irradiated (%) (Hsp70; 0.05 mM): 66%
Hsp70: Protection vs. irradiated (%) (Hsp70; 0.1 mM): 100%
Hsp70: Protection vs. irradiated (%) (Hsp70; 0.1 mM, listed as GGA): 100%
Number of Hsp70 positive cells/cm (Hsp70; 0.05 mM): 130 cells/cm
Number of Hsp70 positive cells/cm (Hsp70; 0.1 mM): 40 cells/cm
expression of CBX5/HP1 ([2]; 24 hour period): jointly activated
expression of CDK2 ([2]; 24 hour period): jointly activated
expression of ELAVL1 ([2]; 24 hour period): activation
expression of ERBIN gene ([2]; 24 hour period): up-regulated
expression of PTPRF-interacting gene ([2]; 24 hour period): up-regulated
expression of SERTAD3 ([2]; 24 hour period): activated
expression of gene SCLY ([2]; 24 hour period): significantly up-regulated
expression of gene for heat shock protein HSP 27 ([2]; 24 hour period): induction
expression of gene for heat shock protein HSP B3 ([2]; 24 hour period): induction
genes activated, effect on cell lipid content ([2]; cholesterol efflux and fatty acid synthesis): 6 genes
capacities of divisions of the cells [3]: level higher compared to the control
